Data published in ChEMBL document CHEMBL1145682, “Bioactive compounds from Taiwania cryptomerioides” (J Nat Prod, 1997).
In brackets after ≈: the same amount, converted by molar mass.

Tests used:
MCF7 = assay: Cytotoxicity against human MCF7 cells after 7 days by MTT assay; type: functional; conditions: MCF7, 168 h, read-out: ED50 (the source's name)
[1] = Toxicity in Artemia salina; type: organism-based; conditions: in vivo
A549 = assay: Cytotoxicity against human A549 cells after 7 days by MTT assay; type: functional; conditions: A549, 168 h, read-out: ED50 (the source's name)
HT-29 = assay: Cytotoxicity against human HT-29 cells after 7 days by MTT assay; type: functional; conditions: HT-29, 168 h, read-out: ED50 (the source's name)
Aedes aegypti = assay: Insecticidal activity against yellow fever mosquito larvae; type: functional

`CC1=C[C@@H]2[C@@H](CC1)[C@](C)(O)CC[C@H]2C(C)C` showed an EC50 (MCF7) of 13.1 µg/mL (≈ 58.7 µM), an LC50 [1] of 9.4 µg/mL (≈ 42.3 µM) and an EC50 (A549) of 11.1 µg/mL (≈ 49.9 µM). It also gave an EC50 (HT-29) of 0.778 µg/mL (≈ 3.5 µM) and an LC50 (Aedes aegypti) of 2 µg/mL (≈ 8.99 µM).

`COc1cccc2c1C(=O)c1c(O)c3c(c(O)c1C2=O)C[C@@](O)(C(=O)CO)C[C@@H]3O[C@H]1C[C@H](N)[C@H](O)[C@H](C)O1` [DOXORUBICIN] gave an EC50 (MCF7) of 0.189 µg/mL (≈ 0.348 µM), an EC50 (A549) of 0.00499 µg/mL (≈ 0.00918 µM) and an EC50 (HT-29) of 0.0357 µg/mL (≈ 0.0657 µM).

Work on `CC1=C[C@H]2[C@@H](C(C)C)CC[C@@](C)(O)[C@H]2CC1=O` yielded an EC50 (MCF7) of 12.9 µg/mL (≈ 54.5 µM), an LC50 [1] of 54.4 µg/mL (≈ 230 µM) and an EC50 (A549) of 8.78 µg/mL (≈ 37.1 µM). For the same compound, the EC50 (HT-29) was 7.85 µg/mL (≈ 33.2 µM) and the LC50 (Aedes aegypti) was 200 µg/mL (≈ 846 µM).

Work on `CC(C)[C@@H]1CC[C@@](C)(O)[C@]2(O)[C@@H](O)C[C@@H](C)C[C@@H]12` yielded an EC50 (MCF7) of 41 µg/mL (≈ 160 µM), an LC50 [1] of 84.8 µg/mL (≈ 331 µM) and an EC50 (A549) of 13.3 µg/mL (≈ 52 µM). For the same compound, the EC50 (HT-29) was 12 µg/mL (≈ 46.8 µM) and the LC50 (Aedes aegypti) was over 250 µg/mL.

For `O=C1OCc2c1cc1ccc3c(c1c2-c1ccc2c(c1)OCO2)OCO3` [HELIOXANTHIN], the LC50 [1] was over 500 µg/mL and the LC50 (Aedes aegypti) was 3 µg/mL (≈ 8.61 µM).

Work on `CC(C)c1cc2c(cc1O)[C@@]1(C)CCCC(C)(C)[C@@H]1CC2` [FERRUGINOL] yielded an EC50 (MCF7) of 23.4 µg/mL (≈ 81.8 µM), an LC50 [1] of 42.3 µg/mL (≈ 148 µM) and an EC50 (A549) of 6.47 µg/mL (≈ 22.6 µM). It also gave an EC50 (HT-29) of 6.43 µg/mL (≈ 22.4 µM) and an LC50 (Aedes aegypti) of 3 µg/mL (≈ 10.5 µM).

Work on `CC1=C[C@@H]2[C@@H](CC1=O)[C@](C)(O)CC[C@H]2C(C)C` yielded an EC50 (MCF7) of 30.1 µg/mL (≈ 127 µM), an LC50 [1] of 200 µg/mL (≈ 846 µM) and an EC50 (A549) of 32.2 µg/mL (≈ 136 µM). The EC50 (HT-29) was 32.5 µg/mL (≈ 138 µM) and the LC50 (Aedes aegypti) was 50 µg/mL (≈ 212 µM).
